Assay results taken from ChEMBL document CHEMBL5131393 (J Med Chem, 2021).

Columns and labels:
[1] = test system: Human immunodeficiency virus 1; experiment: Antiviral activity against HIV-1 pseudovirus infected in human TZM-bl cells preincubated with virus for 30 mins followed by cell infection and measured after 3 days by luciferase assay; format: functional, organism-based; conditions: Human immunodeficiency virus 1, TZM-bl
[2] = test system: TZM; experiment: Cytotoxicity against human TZM-bl cells assessed as reduction in cell viability measured after 3 days by XTT assay; format: functional; conditions: 72 h, time 3 day
[3] = biological target: Human immunodeficiency virus type 1 reverse transcriptase (Human immunodeficiency virus 1, UniProt Q72547); experiment: Inhibition of recombinant HIV-1 reverse transcriptase incubated for 2 hrs by colorimetric assay
[4] = biological target: Human immunodeficiency virus type 1 reverse transcriptase (Human immunodeficiency virus 1) (UniProt Q72547); experiment: Potency index, ratio of test compound IC50 to NBD-14189 IC50 for inhibition of recombinant HIV-1 reverse transcriptase incubated for 2 hrs by colorimetric assay

Question: How did the EC50 [1] turn out when `Cc1ccc(-c2ccc(C(=O)N[C@H](CN)c3ncc(CO)s3)[nH]2)cc1F` was run?
Answer: 0.45 µM

Question: And the CC50 [2]?
Answer: 38.8 µM

Question: And the IC50 [3]?
Answer: 7.2 µM

Question: Which EC50 [1] does the source give for `Cc1nc(C(CNC2CCC2)NC(=O)c2ccc(-c3ccc(Cl)cc3)[nH]2)sc1CO` (single isomer, unassigned) here?
Answer: 2.2 µM

Question: And the CC50 [2]?
Answer: 24 µM

Question: And the Ratio IC50 [4]?
Answer: 31

Question: And the IC50 [3]?
Answer: 43.4 µM

Question: `NC[C@H](NC(=O)c1ccc(-c2cc(F)c(Cl)c(F)c2)[nH]1)c1ncc(CO)s1` was tested. Which CC50 [2] did it give?
Answer: 39.5 µM

Question: And the IC50 [3]?
Answer: 8.4 µM

Question: Which EC50 [1] does the source give for `NCc1cc(-c2ccc3c(c2)OCO3)[nH]c1C(=O)NC(CO)c1nc(S)cs1` (stereo not drawn) here?
Answer: 4.3 µM

Question: And the CC50 [2]?
Answer: 142 µM

Question: What about the IC50 [3] of the same compound?
Answer: 39.5 µM

Question: For `NC[C@@H](NC(=O)c1ccc(-c2ccc(Cl)c(F)c2)[nH]1)c1ncc(CO)s1`, which EC50 [1] is on record?
Answer: 0.57 µM

Question: And the CC50 [2]?
Answer: 33 µM

Question: What about the IC50 [3] of the same compound?
Answer: 13.7 µM

Question: For `CNCc1cc(-c2ccc3c(c2)OCO3)[nH]c1C(=O)NCc1nc(S)c(CO)s1`, which EC50 [1] is on record?
Answer: 2.7 µM

Question: What about the CC50 [2] of the same compound?
Answer: 95.8 µM

Question: How did the EC50 [1] turn out when `NC[C@H](NC(=O)c1ccc(-c2ccc(C(F)(F)F)cc2)[nH]1)c1nc(CO)cs1` was run?
Answer: 0.089 µM

Question: What about the CC50 [2] of the same compound?
Answer: 21.9 µM

Question: What about the IC50 [3] of the same compound?
Answer: 1.5 µM

Question: How did the CC50 [2] turn out when `Cc1cc(-c2ccc(C(F)(F)F)cn2)[nH]c1C(=O)N[C@H](CN)c1nc(CO)cs1` was run?
Answer: 85 µM

Question: And the IC50 [3]?
Answer: 5 µM

Question: `CC1(C)CC(NC(=O)C(=O)Nc2ccc(Cl)cc2)CC(C)(C)N1` was tested. Which CC50 [2] did it give?
Answer: 60 µM

Question: And the IC50 [3]?
Answer: > 200 µM

Question: Which results are given for `Cc1nc([C@@H](CN)NC(=O)c2ccc(-c3ccc(F)c(F)c3)[nH]2)sc1CO`?
Answer: EC50 [1]: 3.3 µM; CC50 [2]: 84.1 µM

Question: How did the CC50 [2] turn out when `Cc1cc(-c2ccc(C(F)(F)F)cn2)[nH]c1C(=O)N[C@@H](CN)c1ncc(CO)s1` was run?
Answer: 109 µM

Question: And the Ratio IC50 [4]?
Answer: 2

Question: For `Cc1sc(C(CO)NC(=O)c2[nH]c(-c3ccc4c(c3)OCO4)cc2CN)nc1S` (stereo not drawn), which EC50 [1] is on record?
Answer: 2.3 µM

Question: What about the CC50 [2] of the same compound?
Answer: 146 µM

Question: What about the IC50 [3] of the same compound?
Answer: 30.6 µM

Question: How did the EC50 [1] turn out when `NC[C@H](NC(=O)c1ccc(-c2ccc(C(F)(F)F)cn2)[nH]1)c1nc(CO)cs1` was run?
Answer: 0.3 µM

Question: What about the CC50 [2] of the same compound?
Answer: 124 µM

Question: And the IC50 [3]?
Answer: 2.8 µM

Question: Which EC50 [1] does the source give for `NC[C@@H](NC(=O)c1ccc(-c2ccc(C(F)(F)F)cn2)[nH]1)c1ncc(C(O)CO)s1` (stereo partly drawn) here?
Answer: 2.1 µM

Question: What about the CC50 [2] of the same compound?
Answer: > 113 µM

Question: What does the source list for `Cc1nc([C@H](CN)NC(=O)c2ccc(-c3ccc(Cl)c(F)c3)[nH]2)sc1CO`?
Answer: CC50 [2]: 40.5 µM; IC50 [3]: 8.3 µM
